{
  "source": "patent US10668118B2",
  "about": "“Microbial consortium and uses thereof” (The Regents of the University of California, priority 2016, dated 2020)",
  "tested_on": "CD4^+CD25^+FOXP3^+ cells",
  "test": "Ex vivo dendritic cell challenge and T cell co-culture with 12,13-DiHOME",
  "assay_type": "cell-based, human",
  "description": "Ex vivo dendritic cell challenge and T cell co-culture. Fecal samples from five of ten NGM1 and seven of eight NGM3 neonates that had undergone metabolic profiling were used (biological replicates). Excluded samples from these groups had insufficient volume for analyses. Fecal samples were homogenized 1 g ml^−1 (w:v) in pre-warmed phosphate-buffered saline (PBS) containing 20% FBS (FBS). Samples were vortexed, incubated (37° C., 10 min) and centrifuged (14,000 rpm, 30 min). Supernatant was filter-sterilized through a 0.2-μm filter before being used in the dendritic cell (DC) T cell assay described below. PBS was used as the negative control. Treatment conditions used for the DiHOME experiment included: 75 μM, 130 μM and 200 μM 12,13 DiHOME (Cayman Chemical, Ann Arbor, Mich.) solubilized in 0.4%, 0.15% and 0.05% DMSO, respectively. DiHOME solutions were added to R10 media (Roswell Park Memorial Institute media 1640 with 10% heat-inactivated FBS (antigen activator) and 2 mM 1-glutamine and 100 U ml^−1 penicillin-streptomycin added; Life Technologies) and exposed to DCs within 1 h of preparation. Controls included PBS and DMSO (delivered in R10 media) at corresponding percentages used to dissolve the different concentrations of DiHOME.\nPeripheral blood mononuclear cells (PBMCs) were purified from plasma obtained from healthy, de-identified human donors (Blood Centers of the Pacific, San Francisco, Calif.) through the cell-sourcing program that ensures donor confidentiality. Donors signed an agreement acknowledging that their blood may be used for research. PBMCs were isolated using Ficoll-Hypaque gradient centrifugation, washed twice with R10 media and incubated for 18 h. Dendritic cells (DCs) were isolated from PBMCs using the EasySep Human Pan-DC Pre-Enrichment Kit (STEMCELL Technologies, Vancouver, BC). DCs (0.5×10^6 cells ml^−1) from two donors (biological replication) were treated in triplicate (treatment replicate) with either cell-free fecal water ([…]) or varying concentrations of DiHOME, and cultured in R10 media supplemented with 10 ng ml^−1 GM-CSF and 20 ng ml^−1 IL-4 at 37° C.^27 for 2 d, for the fecal-water assay, or 5 d, for the DiHOME experiment. For the DiHOME experiment, freshly prepared media containing DiHOME or control exposures was replaced every 48 h. For the fecal-water experiment, the assay was repeated twice on one donor (technical replicates) and once on donor B owing to insufficient numbers of cells recovered from the latter donor. Treatment replicates were also considered biological replicates because the human donor cells are not clonal.\nTwenty-four hours before co-culture with CD4^+ T cells, DC maturation was stimulated by using DC growth mediators (10 ng ml^−1 […] [(TNF-α), 10 ng ml^−1 IL-1b, 10 ng ml^−1 IL-6 and […] (PGE2)]. In preparation for co-culture, DCs were washed in fresh R10 media, counted via flow cytometry and plated in TexMACs Medium (Miltenyi Biotec, San Diego, Calif.) at 0.5×10^6 live CD45^+ cells per well.\nAutologous T lymphocytes were purified from the PBMCs using a naïve CD4^+ T cell isolation kit (Miltenyi Biotec). After purification, naïve autologous CD4^+ T cells were suspended in the TexMACS Medium (Miltenyi Biotec) and added to the treated DCs at a ratio of 10:1 in the presence of soluble anti-CD28 and anti-CD49d ([…]). […] Cytokine secretion was evaluated by cytometric bead array, following the manufacturer's protocol (BD Biosciences). […]",
  "note": "Entries after “also recorded” stand apart in the source; their conditions may differ.",
  "data": [
    {"smiles": "CCCCCC(O)C(O)C/C=C\\CCCCCCCC(=O)O", "note": "(centres unmarked) [12,13-DiHOME]", "values": [
      {"measurement": "proportion of CD4^+CD25^+FOXP3^+ cells", "setting": "75 μM, compared to vehicle control (LME P=0.04)", "value": "significantly reduced"},
      {"measurement": "proportion of CD4^+CD25^+FOXP3^+ cells", "setting": "130 μM, compared to vehicle control (LME P<0.001)", "value": "significantly reduced"},
      {"measurement": "effect size for the suppression of CD4^+CD25^+FOXP3^+", "setting": "130 μM, preliminary assays", "value": "approximately seven"},
      {"measurement": "proportion of CD4^+CD25^+FOXP3^+ cells", "setting": "200 μM, compared to vehicle control (LME P=0.001)", "value": "significantly reduced"},
      {"measurement": "proportion of CD4^+CD25^+FOXP3^+ cells", "setting": "all concentrations examined, compared with vehicle treatment", "value": "recapitulated the effect of NGM3 fecal water; also recorded: reduced"}
    ]}
  ]
}
